Source: PubChem BioAssay AID2060885 (Molecular Pharmacology Branch, DTP, NCI, 2025)

Test system: NCI-H23 complex spheroids with HUVEC/MSC, viability
Assay: Anticancer human tumor NCI-H23 cell line growth inhibition [RAS];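 note: spheroids exposed to compound for 7 days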;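 for viability, T/C: 100% = DMSO vehicle control viability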
Settings: for IC50: curve of first compound; for viability, T/C: stronger effect = lower value
Procedure, shortened: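 Tumour cells grown as complex spheroids with HUVEC endothelial cells and mesenchymal stem cells, treated with RAS pathway inhibitor combinations. Each agent spans half-log steps from near clinical Cmax, or 10 microM where Cmax is unknown.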

[1] = second compound 0.000949 µM, first compound 0.0316 µM
[2] = second compound 0.000949 µM, first compound 0.1 µM
[3] = second compound 0.000949 µM, first compound 0.316 µM
[4] = second compound 0.000949 µM, first compound 1 µM
[5] = second compound 0.000949 µM, first compound 3.16 µM
[6] = second compound 0.000949 µM, first compound 10 µM
[7] = second compound 0.003 µM, first compound 0.0316 µM
[8] = second compound 0.003 µM, first compound 0.1 µM
[9] = second compound 0.003 µM, first compound 0.316 µM
[10] = second compound 0.003 µM, first compound 1 µM
[11] = second compound 0.003 µM, first compound 3.16 µM
[12] = second compound 0.003 µM, first compound 10 µM
[13] = second compound 0.00949 µM, first compound 0.0316 µM
[14] = second compound 0.00949 µM, first compound 0.1 µM
[15] = second compound 0.00949 µM, first compound 0.316 µM
[16] = second compound 0.00949 µM, first compound 1 µM
[17] = second compound 0.00949 µM, first compound 3.16 µM
[18] = second compound 0.00949 µM, first compound 10 µM
[19] = second compound 0.03 µM, first compound 0.0316 µM
[20] = second compound 0.03 µM, first compound 0.1 µM
[21] = second compound 0.03 µM, first compound 0.316 µM
[22] = second compound 0.03 µM, first compound 1 µM
[23] = second compound 0.03 µM, first compound 3.16 µM
[24] = second compound 0.03 µM, first compound 10 µM
[25] = second compound 0.0949 µM, first compound 0.0316 µM
[26] = second compound 0.0949 µM, first compound 0.1 µM
[27] = second compound 0.0949 µM, first compound 0.316 µM
[28] = second compound 0.0949 µM, first compound 1 µM
[29] = second compound 0.0949 µM, first compound 3.16 µM
[30] = second compound 0.0949 µM, first compound 10 µM
[31] = second compound 0.3 µM, first compound 0.0316 µM
[32] = second compound 0.3 µM, first compound 0.1 µM
[33] = second compound 0.3 µM, first compound 0.316 µM
[34] = second compound 0.3 µM, first compound 1 µM
[35] = second compound 0.3 µM, first compound 3.16 µM
[36] = second compound 0.3 µM, first compound 10 µM

CC(=O)OC12COC1CC(O)C1(C)C(=O)C(O)C3=C(C)C(OC(=O)C(O)C(NC(=O)OC(C)(C)C)c4ccccc4)CC(O)(C(OC(=O)c4ccccc4)C21)C3(C)C (centres undefined) + CCn1c(-c2cc(N3CCN(C)CC3)cnc2C(C)OC)c2c3cc(ccc31)-c1csc(n1)CC(NC(=O)C1CC1C)C(=O)N1CCCC(N1)C(=O)OCC(C)(C)C2
IC50 (second compound 0.000949 µM): < 31.6 nM | IC50 (second compound 0.003 µM): < 31.6 nM | IC50 (second compound 0.00949 µM): < 31.6 nM | IC50 (second compound 0.03 µM): < 31.6 nM | IC50 (second compound 0.0949 µM): < 31.6 nM | IC50 (second compound 0.3 µM): < 31.6 nM | viability, T/C [1]: 13.9% | viability, T/C [2]: 16.1% | viability, T/C [3]: 14.7% | viability, T/C [4]: 15.5% | viability, T/C [5]: 21.5% | viability, T/C [6]: 25.5% | viability, T/C [7]: 11.9% | viability, T/C [8]: 12.4% | viability, T/C [9]: 11.6% | viability, T/C [10]: 12.1% | viability, T/C [11]: 17.1% | viability, T/C [12]: 19.4% | viability, T/C [13]: 12.5% | viability, T/C [14]: 10.9% | viability, T/C [15]: 11.6% | viability, T/C [16]: 13.9% | viability, T/C [17]: 15.8% | viability, T/C [18]: 17.3% | viability, T/C [19]: 11.4% | viability, T/C [20]: 11.7% | viability, T/C [21]: 12% | viability, T/C [22]: 12.5% | viability, T/C [23]: 16.4% | viability, T/C [24]: 19.9% | viability, T/C [25]: 10.7% | viability, T/C [26]: 10.6% | viability, T/C [27]: 10.4% | viability, T/C [28]: 10.9% | viability, T/C [29]: 12.4% | viability, T/C [30]: 14.9% | viability, T/C [31]: 10.1% | viability, T/C [32]: 8.97% | viability, T/C [33]: 10.4% | viability, T/C [34]: 8.98% | viability, T/C [35]: 12.6% | viability, T/C [36]: 14.2%

CCC(CC)c1cc(NC2CCC(N)C2)n2nccc2n1 (centres undefined) + CCn1c(-c2cc(N3CCN(C)CC3)cnc2C(C)OC)c2c3cc(ccc31)-c1csc(n1)CC(NC(=O)C1CC1C)C(=O)N1CCCC(N1)C(=O)OCC(C)(C)C2
IC50 (second compound 0.000949 µM): < 31.6 nM | IC50 (second compound 0.003 µM): < 31.6 nM | IC50 (second compound 0.00949 µM): < 31.6 nM | IC50 (second compound 0.03 µM): < 31.6 nM | IC50 (second compound 0.0949 µM): < 31.6 nM | IC50 (second compound 0.3 µM): < 31.6 nM | viability, T/C [1]: 46.5% | viability, T/C [2]: 50.7% | viability, T/C [3]: 40.9% | viability, T/C [4]: 41.2% | viability, T/C [5]: 2.33% | viability, T/C [6]: 0.49% | viability, T/C [7]: 37.7% | viability, T/C [8]: 33.8% | viability, T/C [9]: 34% | viability, T/C [10]: 36.4% | viability, T/C [11]: 2.67% | viability, T/C [12]: 0.37% | viability, T/C [13]: 36.3% | viability, T/C [14]: 33.7% | viability, T/C [15]: 34.2% | viability, T/C [16]: 35.7% | viability, T/C [17]: 1.63% | viability, T/C [18]: 0.42% | viability, T/C [19]: 30.1% | viability, T/C [20]: 24.9% | viability, T/C [21]: 31.1% | viability, T/C [22]: 28.3% | viability, T/C [23]: 0.59% | viability, T/C [24]: 0.54% | viability, T/C [25]: 22.9% | viability, T/C [26]: 23.2% | viability, T/C [27]: 24.7% | viability, T/C [28]: 25.4% | viability, T/C [29]: 0.87% | viability, T/C [30]: 0.64% | viability, T/C [31]: 19% | viability, T/C [32]: 20.5% | viability, T/C [33]: 22.4% | viability, T/C [34]: 19% | viability, T/C [35]: 1.45% | viability, T/C [36]: 0.47%
